# Source: patent US20130109718A1, “1-CYCLOALKYL- OR 1-HETEROCYCLYL-HYDROXYIMINO-3-PHENYL-PROPANES” (Hoffmann-La Roche Inc., priority 2011, published 2013)
# Target: T1, human GPBAR1 receptor (Homo sapiens, UniProt Q8TDU6)
# T1 construct: expressed in transfected cells
# T1 sequence (Q8TDU6 1-330): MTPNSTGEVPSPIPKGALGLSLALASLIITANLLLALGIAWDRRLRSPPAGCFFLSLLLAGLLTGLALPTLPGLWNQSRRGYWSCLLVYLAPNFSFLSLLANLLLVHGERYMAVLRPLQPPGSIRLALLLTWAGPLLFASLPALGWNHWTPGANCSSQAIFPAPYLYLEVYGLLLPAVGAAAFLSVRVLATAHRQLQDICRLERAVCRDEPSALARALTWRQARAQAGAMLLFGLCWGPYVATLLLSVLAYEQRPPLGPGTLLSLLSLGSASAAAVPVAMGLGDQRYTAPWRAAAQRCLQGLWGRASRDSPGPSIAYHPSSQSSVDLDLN
# Assay: functional cAMP assay in CHO-dhfr(minus) cells expressing human GPBAR1 receptors
# Format: cell-based
# Conditions: CHO-dhfr(minus) cells expressing human GPBAR1, 30 min at 30° C.
# From the text: The cDNA of the human GPBAR1 receptor (Genbank: NM_170699 with the exception of a silent C:G mutation at position 339 from the start codon) was amplified by polymerase chain reaction (PCR) from human cDNA and inserted into pCineo (Promega) by standard methods (Current Protocols in Molecular Biology, Wiley Press, ed. Ausubel et al.). The final clone was verified by DNA sequence analysis. The plasmid was transfected into CHO cells deficient in dihydrofolate reductase activity (CHO-dhfr-) using Lipofectamine plus (Invitrogen). Clones were isolated in limited dilution conditions and identified by activities in the cAMP assay using lithocholic acid as agonist. A clonal cell line displaying the greatest activity in cAMP increases was selected and identified as giving consistently good responses for up to at least 20 passages.
# CHO-dhfr(minus) cells expressing human GPBAR1 receptors are seeded 17-24 hours prior to the experiment 50.000 cells per well in a black 96 well plate with flat clear bottom (Corning Costar #3904) in DMEM (Invitrogen No. 31331), 1×HT supplement, with 10% fetal calf serum and incubated at 5% CO2 and 37° C. in a humidified incubator. The growth medium was exchanged with Krebs Ringer Bicarbonate buffer with 1 mM IBMX and incubated at 30° C. for 30 min. Compounds were added to a final assay volume of 100 μl and incubated for 30 min at 30° C. The assay was stopped by the addition of 50 μl lysis reagent (Tris, NaCl, 1.5% Triton X100, 2.5% NP40, 10% NaN3) and 50 μl detection solutions (20 μM mAb Alexa700-cAMP 1:1, and 48 μM Ruthenium-2-AHA-cAMP) and shaken for 2 h at room temperature. The time-resolved energy transfer is measured by a TRF reader (Evotec Technologies GmbH, Hamburg Germany), equipped with a ND:YAG laser as excitation source. The plate is measured twice with the excitation at 355 nm and at the emission with a delay of 100 ns and a gate of 100 ns, total exposure time 10 s at 730 (bandwidth 30 nm) or 645 nm (bandwidth 75 nm), respectively. The measured signal at 730 nm has to be corrected for the ruthenium background, the direct excitation of Alexa and the buffer control. The FRET signal is calculated as follows: FRET=T730-Alexa730-P(T645-B645) with P=Ru730-B730/Ru645-B645, where T730 is the test well measured at 730 nM, T645 is the test well measured at 645 nm, B730 and B645 are the buffer controls at 730 nm and 645 nm, respectively. cAMP content is determined from the function of a standard curve spanning from 10 μM to 0.13 nM cAMP.
# EC50 values were determined using Activity Base analysis (ID Business Solution, Limited). The EC50 values for a wide range of bile acids generated from this assay were in agreement with the values published in the scientific literature. Specificity for GPBAR1 was tested in non-transfected CHO cells in the same assay as above.
row,Compound,EC50 [nM]
1,"Cc1ccccc1[C@H](C/C(=N\O)C1CCC(=O)N(C)C1)c1ccc(S(C)(=O)=O)cc1 (mixture of isomers) [Example 1, 5-((R,E)-1-(Hydroxyimino)-3-(4-(methylsulfonyl)phenyl)-3-o-tolylpropyl)-1-methylpiperidin-2-one]",118
2,"Cc1ccccc1[C@H](C/C(=N\O)C1CCC(=O)N(C)C1)c1ccc(S(C)(=O)=O)cc1 (single isomer, unassigned) [Example 3]",145
3,"Cc1ccccc1[C@H](C/C(=N\O)C1CCC(=O)N(C)C1)c1ccc(S(C)(=O)=O)cc1 (single isomer, unassigned) [Example 4]",29
4,"Cc1ccccc1[C@H](C/C(=N/O)C1CCC(=O)N(C)C1)c1ccc(S(C)(=O)=O)cc1 (stereo partly drawn) [Example 2, 5-((R,Z)-1-(hydroxyimino)-3-(4-(methylsulfonyl)phenyl)-3-o-tolylpropyl)-1-methylpiperidin-2-one]",8670
5,"Cc1ccccc1[C@H](C/C(=N\O)C1CCC(=O)N(C)C1)c1ccc(N2CCC(C(=O)O)CC2)cc1 (stereo partly drawn) [Example 5, Sodium 1-(4-((1R,E)-3-(hydroxyimino)-3-(1-methyl-6-oxopiperidin-3-yl)-1-o-tolylpropyl)phenyl)piperidine-4-carboxylate]",42
6,"Cc1ccccc1[C@H](C/C(=N\O)C1CCC(=O)N(C)C1)c1ccccc1 (stereo partly drawn) [Example 6, 5-((R,E)-1-(Hydroxyimino)-3-phenyl-3-o-tolylpropyl)-1-methylpiperidin-2-one]",51
7,"Cc1ccccc1[C@H](C/C(=N\O)C1CCC(=O)N(C)C1)c1ccc(-c2ccc(C(=O)O)cc2)cc1 (stereo partly drawn) [Example 7, 4′-((1R,E)-3-(Hydroxyimino)-3-(1-methyl-6-oxopiperidin-3-yl)-1-o-tolylpropyl)biphenyl-4-carboxylic acid]",558
8,"CC(=O)N1CCC(/C(CC(c2ccc(Br)cc2)c2ccccc2C)=N/O)CC1 (stereo not drawn) [Example 8, (E)-1-(4-(3-(4-Bromophenyl)-1-(hydroxyimino)-3-o-tolylpropyl)piperidin-1-yl)ethanone]",8270
9,"Cc1ccccc1C(C/C(=N\O)C1CCOCC1)c1ccc(Br)cc1 (stereo not drawn) [Example 9, (E)-3-(4-Bromophenyl)-1-(tetrahydro-2H-pyran-4-yl)-3-o-tolylpropan-1-one oxime]",118
10,"CS(=O)(=O)c1ccc(C(C/C(=N\O)C2CCOCC2)c2ccccc2)cc1 (stereo not drawn) [Example 10, (E)-3-(4-(Methylsulfonyl)phenyl)-3-phenyl-1-(tetrahydro-2H-pyran-4-yl)propan-1-one oxime]",799
11,"Cc1ccccc1C(C/C(=N\O)C1CCSCC1)c1ccc(Br)cc1 (stereo not drawn) [Example 11, (E)-3-(4-Bromophenyl)-1-(tetrahydro-2H-thiopyran-4-yl)-3-o-tolylpropan-1-one oxime]",9950
12,"Cc1ccccc1C(C/C(=N\O)C1CCS(=O)(=O)CC1)c1ccc(Br)cc1 (stereo not drawn) [Example 12, 3-(4-Bromo-phenyl)-1-(1,1-dioxo-hexahydro-thiopyran-4-yl)-3-o-tolyl-propan-1-one oxime]",9730
13,"Cc1ccccc1C(C/C(=N\O)[C@H]1CC[C@H](O)CC1)c1ccc(Br)cc1 (stereo partly drawn) [Example 13, (E)-3-(4-Bromophenyl)-1-(trans-4-hydroxycyclohexyl)-3-o-tolylpropan-1-one oxime]",2000
14,"Cc1ccccc1C(C/C(=N\O)C1CCC(=O)CC1)c1ccc(Br)cc1 (stereo not drawn) [Example 14, (E)-4-(3-(4-bromophenyl)-1-(hydroxyimino)-3-o-tolylpropyl)cyclohexanone]",601
15,"Cc1ccccc1C(C/C(=N\O)C1CCC(O)CC1)c1ccc(S(C)(=O)=O)cc1 (stereo not drawn) [Example 15, (E)-1-(4-Hydroxycyclohexyl)-3-(4-(methylsulfonyl)phenyl)-3-o-tolylpropan-1-one oxime]",680
16,"Cc1ccccc1C(C/C(=N/O)C1CCC(O)CC1)c1ccc(S(C)(=O)=O)cc1 (stereo not drawn) [Example 16, (Z)-1-(4-hydroxycyclohexyl)-3-(4-(methylsulfonyl)phenyl)-3-o-tolylpropan-1-one oxime]",7720
17,"Cc1ccccc1C(C/C(=N\O)[C@H]1CC[C@](C)(O)CC1)c1ccc(S(C)(=O)=O)cc1 (stereo partly drawn) [Example 17, (E)-1-((1r,4r)-4-Hydroxy-4-methylcyclohexyl)-3-(4-(methylsulfonyl)phenyl)-3-o-tolylpropan-1-one oxime]",9810
18,"Cc1ccccc1C(C/C(=N\O)C1CC(O)C1)c1ccc(Br)cc1 (stereo not drawn) [Example 18, (E)-3-(4-Bromophenyl)-1-(3-hydroxycyclobutyl)-3-o-tolylpropan-1-one oxime]",3850
